Results: ChEMBL document CHEMBL1201862, “PubChem BioAssay data set” (2004)
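Tested at 5 concentrations; 48 h exposure; 96-well plates; endpoints linearly interpolated, else capped at highest concentration. GI50: concentration for 50% inhibition of growth.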 Calls of active or inactive are those of the source. No stated cut-off is given here; in the data, active = GI50 up to about 1.1 µM and inactive = higher.

Assays:
Test in all cases: inhibition of tumour cell growth, NCI panel, 48 h
BT-549 = tested on: BT-549
SK-MEL-5 = tested on: SK-MEL-5
SN12C = tested on: SN12C
HCC 2998 = tested on: HCC 2998
U-251 = tested on: U-251
HT-29 = tested on: HT-29
SK-OV-3 = tested on: SK-OV-3
CAKI-1 = tested on: CAKI-1
UO-31 = tested on: UO-31
NCI/ADR-RES = tested on: NCI/ADR-RES
T47D = tested on: T47D
PC-3 = tested on: PC-3
HCT-116 = tested on: HCT-116
TK-10 = tested on: TK-10
Hs-578T = tested on: Hs-578T
OVCAR-8 = tested on: OVCAR-8
OVCAR-4 = tested on: OVCAR-4
Malme-3M = tested on: Malme-3M

Measured: GI50

Cc1ccsc1/C=N/Nc1ccc2ccccc2n1
inactive: BT-549 34.4 µM | SK-MEL-5 3.4 µM | SN12C > 100 µM | HCC 2998 24.1 µM | U-251 49 µM | HT-29 12.5 µM | SK-OV-3 16.5 µM | CAKI-1 17.5 µM | UO-31 26.7 µM | NCI/ADR-RES 30.5 µM | T47D > 100 µM | PC-3 19.6 µM | HCT-116 28.1 µM | TK-10 19.9 µM | Hs-578T 37.7 µM | OVCAR-8 41.4 µM | OVCAR-4 29.7 µM

Cc1cc(S(=O)(=O)[N-]C(=C(C#N)C#N)[n+]2ccc(N(C)C)cc2)c(SCC(=O)O)cc1Cl
inactive: BT-549 > 100 µM | SK-MEL-5 > 100 µM | SN12C > 100 µM | HCC 2998 > 100 µM | U-251 > 100 µM | HT-29 > 100 µM | SK-OV-3 > 100 µM | CAKI-1 > 100 µM | UO-31 > 100 µM | NCI/ADR-RES > 100 µM | T47D > 100 µM | PC-3 > 100 µM | HCT-116 > 100 µM | TK-10 > 100 µM | Malme-3M 22.6 µM | Hs-578T > 100 µM | OVCAR-8 > 100 µM | OVCAR-4 > 100 µM

COC(=O)[C@]1(C)CCC[C@@]2(C)[C@@H]3C[C@@H]4[C@H]5C[C@@]3(CC[C@@H]21)C[C@@]45C
inactive: BT-549 16.5 µM | SK-MEL-5 17.2 µM | SN12C 19.2 µM | HCC 2998 17.3 µM | U-251 24 µM | HT-29 14.5 µM | SK-OV-3 14.7 µM | CAKI-1 16.4 µM | UO-31 16 µM | NCI/ADR-RES 15.7 µM | T47D 23.2 µM | PC-3 15.2 µM | HCT-116 20 µM | TK-10 15.1 µM | Malme-3M 22.2 µM | Hs-578T 20.5 µM | OVCAR-8 16.4 µM | OVCAR-4 13.8 µM

O=C(/C=C/c1ccccc1)CCc1c(O)c2ccccc2oc1=O
inactive: BT-549 32.4 µM | SK-MEL-5 80.5 µM | SN12C > 100 µM | HCC 2998 > 100 µM | U-251 50.9 µM | HT-29 > 100 µM | SK-OV-3 > 100 µM | CAKI-1 > 100 µM | UO-31 63.2 µM | NCI/ADR-RES > 100 µM | T47D > 100 µM | PC-3 43.9 µM | HCT-116 35.7 µM | Malme-3M > 100 µM | Hs-578T > 100 µM | OVCAR-8 > 100 µM | OVCAR-4 76.9 µM
